Test [1] concerns the target T1, Full length DGKζ (in-house protein M1-V929) (Homo sapiens, UniProt Q13574).
T1 construct: His (N); TEV site (N); made in house; host or cells: Sf9 insect cells (Bac-to-Bac baculovirus)
Kind of test: Biochemical DGK IC50 assay (ADP-Glo, lipid micelle substrate), DGKζ. The settings on record: 1 hour preincubation, 1 hour reaction, room temperature. The method in brief:
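Enzyme: full-length human DGKζ M1-V929, produced in baculovirus-infected Sf9 cells; substrate DAG/PS micelles. Buffer 50 mM HEPES, 10 mM MgCl2, 0.01 mM CaCl2, 0.1 mM Na3VO4.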
Background: ADP-Glo first removes unused ATP, then detects ADP through luciferase.

Test [2] concerns the target T2, Full length DGKα (D21-10BG, SignalChem) (Homo sapiens, UniProt P23743).
T2 construct: Full length DGKα (D21-10BG, SignalChem); purchased SignalChem D21-10BG
As to the kind of experiment: Biochemical DGK IC50 assay (ADP-Glo, lipid micelle substrate), DGKα. The settings on record: 1 hour preincubation, 1 hour reaction, room temperature. The essentials:
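ADP-Glo luminescence quantified ADP produced after a 1 h room-temperature reaction of full-length DGKα on DAG/PS micelles, in HEPES buffer containing MgCl2, CaCl2, vanadate, BSA and Tween-20. IC50 values derive from activity inhibition over a compound concentration series.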

A value given as a limit tells only on which side of the number the result lay.

T2 sequence (P23743 whole entry): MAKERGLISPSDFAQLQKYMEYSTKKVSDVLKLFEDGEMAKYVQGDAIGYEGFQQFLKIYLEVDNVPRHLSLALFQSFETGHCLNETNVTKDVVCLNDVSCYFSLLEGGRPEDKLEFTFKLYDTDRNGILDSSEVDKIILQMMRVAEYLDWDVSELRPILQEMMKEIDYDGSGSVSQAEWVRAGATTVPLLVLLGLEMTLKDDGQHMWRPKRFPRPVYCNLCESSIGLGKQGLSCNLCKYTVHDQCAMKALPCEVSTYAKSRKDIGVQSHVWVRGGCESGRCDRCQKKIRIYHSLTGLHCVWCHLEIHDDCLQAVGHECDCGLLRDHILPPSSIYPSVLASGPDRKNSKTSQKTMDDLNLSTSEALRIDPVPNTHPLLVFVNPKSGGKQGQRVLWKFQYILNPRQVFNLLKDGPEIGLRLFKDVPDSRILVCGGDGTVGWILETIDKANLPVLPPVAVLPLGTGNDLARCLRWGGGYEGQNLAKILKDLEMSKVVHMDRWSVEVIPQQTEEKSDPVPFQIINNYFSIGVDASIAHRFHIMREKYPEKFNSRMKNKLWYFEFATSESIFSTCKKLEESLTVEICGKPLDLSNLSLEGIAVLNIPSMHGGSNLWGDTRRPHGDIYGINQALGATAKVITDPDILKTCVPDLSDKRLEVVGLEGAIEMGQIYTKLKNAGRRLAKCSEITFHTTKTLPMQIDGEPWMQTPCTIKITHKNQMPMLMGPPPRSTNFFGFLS
T1 sequence (Q13574 1-929 isoform Q13574-4): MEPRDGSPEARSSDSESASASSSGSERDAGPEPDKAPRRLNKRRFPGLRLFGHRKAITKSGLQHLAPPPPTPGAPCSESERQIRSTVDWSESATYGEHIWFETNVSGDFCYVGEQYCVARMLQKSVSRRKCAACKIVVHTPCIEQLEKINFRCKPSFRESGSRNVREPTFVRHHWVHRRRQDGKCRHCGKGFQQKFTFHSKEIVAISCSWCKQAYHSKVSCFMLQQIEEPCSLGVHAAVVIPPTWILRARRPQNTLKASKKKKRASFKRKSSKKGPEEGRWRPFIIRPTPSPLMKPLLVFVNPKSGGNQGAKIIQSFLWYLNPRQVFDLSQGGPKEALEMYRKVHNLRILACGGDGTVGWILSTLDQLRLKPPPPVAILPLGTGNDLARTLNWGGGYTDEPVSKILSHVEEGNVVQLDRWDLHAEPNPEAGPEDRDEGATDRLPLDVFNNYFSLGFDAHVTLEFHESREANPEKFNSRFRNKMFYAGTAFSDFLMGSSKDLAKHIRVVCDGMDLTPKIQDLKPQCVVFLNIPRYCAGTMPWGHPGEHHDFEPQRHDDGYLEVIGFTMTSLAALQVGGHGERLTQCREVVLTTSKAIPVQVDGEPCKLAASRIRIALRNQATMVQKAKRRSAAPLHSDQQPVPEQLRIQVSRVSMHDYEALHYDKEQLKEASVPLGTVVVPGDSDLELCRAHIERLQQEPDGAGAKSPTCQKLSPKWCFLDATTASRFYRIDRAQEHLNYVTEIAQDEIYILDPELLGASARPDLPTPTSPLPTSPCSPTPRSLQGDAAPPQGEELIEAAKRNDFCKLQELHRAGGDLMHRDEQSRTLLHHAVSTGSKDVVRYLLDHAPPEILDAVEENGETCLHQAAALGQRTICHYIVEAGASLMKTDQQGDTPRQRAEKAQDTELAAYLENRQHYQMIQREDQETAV

As to `CC(c1ccc2c(c1)OCCO2)N1C[C@H](C)N(c2nc(=O)n(C)c3c2nc(CC#N)n3C)C[C@H]1C` (stereo partly drawn) [Compound A58, 2-(6-((2S,5R)-4-(1-(2,3-dihydrobenzo[b][1,4]dioxin-6-yl)ethyl)-2,5-dimethylpiperazin-1-yl)-3,9-dimethyl-2-oxo-3,9-dihydro-2H-purin-8-yl)acetonitrile], the IC50 in test [1] was 40 nM; in test [2] it was over 10000 nM.

As to `CC(c1ccc2c(c1)OC(C)(C)CO2)N1C[C@H](C)N(c2nc(=O)n(C)c3c2nc(CC#N)n3C2CC2)C[C@H]1C` (stereo partly drawn) [Compound A86, 2-(9-cyclopropyl-6-((2S,5R)-4-(1-(3,3-dimethyl-2,3-dihydrobenzo[b][1,4]dioxin-6-yl)ethyl)-2,5-dimethylpiperazin-1-yl)-3-methyl-2-oxo-3,9-dihydro-2H-purin-8-yl)acetonitrile], the IC50 is 67 nM in test [1] and over 150000 nM in test [2].

Turning to `CCn1c(CC#N)nc2c(N3C[C@@H](C)N(C(C)c4cc(F)c5c(n4)OC(C)(C)CO5)C[C@@H]3C)nc(=O)n(C)c21` (single isomer, unassigned) [Compound A163b], the figures for the IC50 in test [1] and in test [2] were 2070 nM and over 150000 nM, respectively.

Regarding `CC(OC(F)F)c1cc(F)ccc1C(C)N1C[C@H](C)N(c2nc(=O)n(C)c3c2nc(CC#N)n3C)C[C@H]1C` (single isomer, unassigned) [Compound A29b], the IC50 was found to be 4 nM in test [1] and 136000 nM in test [2].

Turning to `CC[C@H]1CN(C(C)c2ccc(F)cc2C(F)(F)F)[C@H](CC)CN1c1nc(=O)n(C)c2c1nc(CC#N)n2C` (single isomer, unassigned) [Compound A34a], the results for the IC50 in test [1] and in test [2] were 392 nM and over 10000 nM, respectively.

As to `Cc1ccc(C(C)N2C[C@H](C)N(c3cc(=O)n(C)c4sc(CC#N)nc34)C[C@H]2C)c(C(F)(F)F)c1` (stereo partly drawn) [Compound A196, 2-(7-((2S,5R)-2,5-dimethyl-4-(1-(4-methyl-2-(trifluoromethyl)phenyl)ethyl)piperazin-1-yl)-4-methyl-5-oxo-4,5-dihydrothiazolo[5,4-b]pyridin-2-yl)acetonitrile], the IC50 in test [1] was 749 nM; in test [2] it was over 10000 nM.

In the case of `CCn1c(CC#N)nc2c(N3C[C@@H](C)N(C(C)c4ccc5c(c4)OC(F)(F)O5)C[C@@H]3C)nc(=O)n(C)c21` (single isomer, unassigned) [Compound A99b], the half-maximal inhibitory concentration (IC50) is 536 nM in test [1] and 46500 nM in test [2].

`CCc1nc2cc(C(C)N3C[C@H](C)N(c4nc(=O)n(C)c5c4nc(CC#N)n5CC)C[C@H]3C)ccc2s1` (single isomer, unassigned) [Compound A95b]: the IC50 in test [1] was determined as 555 nM; in test [2], 108000 nM.

On to `CC(c1ccc2c(c1)OCCO2)N1C[C@H](C)N(c2c(F)c(=O)n(C)c3c2nc(CC#N)n3C)C[C@H]1C` (single isomer, unassigned) [Compound A18b], for which the IC50 in test [1] turned out to be 32 nM; in test [2] it was 6380 nM.

On to `CC(c1ccc2c(c1)OCCO2)N1C[C@H](C)N(c2nc(=O)n(C)c3c2nc(CC#N)n3C)C[C@H]1C` (single isomer, unassigned) [Compound A58a], for which the IC50 in test [1] worked out at 20 nM; in test [2] it was 13300 nM.

With `CC(c1ccc(F)cc1C(F)(F)F)N1C[C@H](C)N(c2cc(=O)n(C)c3[nH]c(CC#N)nc23)C[C@H]1C` (stereo partly drawn) [Compound A9, 2-(7-((2S,5R)-4-(1-(4-fluoro-2-(trifluoromethyl)phenyl)ethyl)-2,5-dimethylpiperazin-1-yl)-4-methyl-5-oxo-4,5-dihydro-3H-imidazo[4,5-b]pyridin-2-yl)acetonitrile], the IC50 in test [1] is 262 nM; in test [2] it was over 10000 nM.

As to `CC(c1ccc2nccnc2c1)N1C[C@H](C)N(c2cc(=O)n(C)c3sc(CC#N)nc23)C[C@H]1C` (mixture of isomers) [Compound A194, 2-(7-((2S,5R)-2,5-dimethyl-4-(1-(quinoxalin-6-yl)ethyl)piperazin-1-yl)-4-methyl-5-oxo-4,5-dihydrothiazolo[5,4-b]pyridin-2-yl)acetonitrile], the IC50 in test [1] was 7 nM; in test [2], 4080 nM.

On to `CC[C@H]1CN(C(C)c2ccc(C(F)(F)F)cc2)[C@H](CC)CN1c1nc(=O)n(C)c2c1nc(CC#N)n2C` (single isomer, unassigned) [Compound A149a], for which the IC50 came out at 37 nM in test [1] and 1620 nM in test [2].

On to `CCn1c(CC#N)nc2c(N3C[C@@H](C)N(C(C)c4ccc5c(c4)OC4(CCC4)O5)C[C@@H]3C)nc(=O)n(C)c21` (mixture of isomers) [Compound A169, 2-(6-((2S,5R)-2,5-dimethyl-4-(1-(spiro[benzo[d][1,3]dioxole-2,1′-cyclobutan]-5-yl)ethyl)piperazin-1-yl)-9-ethyl-3-methyl-2-oxo-3,9-dihydro-2H-purin-8-yl)acetonitrile], for which the IC50 was determined as 31 nM in test [1] and 28500 nM in test [2].

`CCn1c(CC#N)nc2c(N3C[C@@H](C)N(C(C)c4ccc(N5CCOCC5)cc4)C[C@@H]3C)nc(=O)n(C)c21` (stereo partly drawn) [Compound A143, 2-(6-((2S,5R)-2,5-dimethyl-4-(1-(4-morpholinophenyl)ethyl)piperazin-1-yl)-9-ethyl-3-methyl-2-oxo-3,9-dihydro-2H-purin-8-yl)acetonitrile]: the IC50 was over 10000 nM in test [1] and over 150000 nM in test [2].

On to `CCn1c(CC#N)nc2c(N3C[C@@H](C)N(C(C)c4cc5c(cc4F)OCC(C)(C)O5)C[C@@H]3C)nc(=O)n(C)c21` (single isomer, unassigned) [Compound A157a], for which the values for the 50% inhibitory concentration (IC50) in test [1] and in test [2] were 28 nM and 11600 nM, respectively.

In the case of `CCn1c(CC#N)nc2c(N3C[C@@H](C)N(C(C)c4cccc(C(F)(F)F)c4)C[C@@H]3C)nc(=O)n(C)c21` (mixture of isomers) [Compound A42, 2-(6-((2S,5R)-2,5-dimethyl-4-(1-(3-(trifluoromethyl)phenyl)ethyl)piperazin-1-yl)-9-ethyl-3-methyl-2-oxo-3,9-dihydro-2H-purin-8-yl)acetonitrile], the IC50 worked out at 42 nM in test [1] and 61900 nM in test [2].

For `CCn1c(CC#N)nc2c(N3C[C@@H](C)N(C(C)c4ccc(F)cc4C(F)(F)F)C[C@@H]3C)nc(=O)n(C)c21` (single isomer, unassigned) [Compound A35b], the IC50 is 24 nM in test [1] and over 150000 nM in test [2].

On to `CCn1c(CC#N)nc2c(N3C[C@@H](C)N(C(C)c4cc5c(cc4Cl)OCC(C)(C)O5)C[C@@H]3C)nc(=O)n(C)c21` (stereo partly drawn) [Compound A73, 2-(6-((2S,5R)-4-(1-(7-chloro-3,3-dimethyl-2,3-dihydrobenzo[b][1,4]dioxin-6-yl)ethyl)-2,5-dimethylpiperazin-1-yl)-9-ethyl-3-methyl-2-oxo-3,9-dihydro-2H-purin-8-yl)acetonitrile], for which the IC50 in test [1] was 639 nM; in test [2], over 150000 nM.

As to `COC[C@H]1CN(C(C)c2ccc(F)cc2C(F)(F)F)[C@H](C)CN1c1nc(=O)n(C)c2c1nc(CC#N)n2C` (single isomer, unassigned) [Compound A10b], the IC50 is 14 nM in test [1] and over 10000 nM in test [2].

On to `COC[C@H]1CN(C(C)c2ccc(F)cc2C(F)(F)F)[C@H](C)CN1c1nc(=O)n(C)c2c1nc(CC#N)n2C` (single isomer, unassigned) [Compound A10a], for which the IC50 was 405 nM in test [1] and over 10000 nM in test [2].

Regarding `CCn1c(CC#N)nc2c(N3C[C@@H](C)N(C(C)c4ccc5c(c4)OC(C)(C)CO5)C[C@@H]3C)nc(=O)n(C)c21` (single isomer, unassigned) [Compound A60b], the IC50 in test [1] is 206 nM; in test [2], over 150000 nM.

Usually IC50 stands for the concentration that gives 50% inhibition. Read a high IC50 as weaker potency.

The values above are taken from patent US20260125378A2, “Heterocyclic Compounds” (BeOne Medicines I GmbH, priority 2023, published 2026).
